Values quoted from earlier work, collected in patent publication US20240041034A1, “ANTIMICROBIAL COMPOSITION COMPRISING A DIOCTYLDIMETHYLAMMONIUM COMPOUND” (The Procter & Gamble Company, priority 2022, published 2024).

Details: in water, in the absence of surfactant

CCCCCCCC[N+](C)(C)CCCCCCCC.[Cl-] [DODMAC, dioctyldimethylammonium chloride]
Critical Micelle Concentration (CMC): ~5000 ppm
